This is an account of results in patent publication US20230330059A1, “3-PHENYL-2H-CHROMENE DERIVATIVE AND PHARMACEUTICAL COMPOSITION FOR PREVENTING OR TREATING ALZHEIMER'S, CONTAINING SAME” (NEUROBIONET, INC., priority 2020, published 2023).

Read-outs that look alike come from different tables or passages of the source.

Experiment [1] relates to nitric oxide production in LPS-treated primary microglia. As to the kind of experiment: Nitric oxide production (Griess) in LPS-treated primary microglia. It counts as cell-based, ICR mice. The note with it: FIG. 9a. The protocol: (§1) BV2 cells were seeded at a density of 4 x 10^5 cells/well into 96-well plates, and primary microglial cells isolated from the brain of […] ICR mice were seeded at a density of 4 x 10^5 cells/well into 24-well plates.
After stabilization for 24 hours, the cells were treated with various concentrations (1 and 5 µM) of daidzein, o-desmethylangolensin, S-equal, SPA1413, and SPA1426 for 30 minutes and then with LPS (100 ng/ml) for 24 hours at 37° C. The culture media were collected and measured for NO production using a Griess reagent solution (1% sulfanilamide and 0.1% N-1-naphthyl ethylenediamine dihydrochloride in 5% phosphoric acid). Briefly, a total of 50 µL of the supernatant was transferred to new 96-well plates and mixed with the same volume of the Griess reagent solution, followed by measuring OD at 570 nm. In addition, the cell viability was assayed in the same manner as in Experimental Example 2.
A general note: Nitrite, measured by Griess reagent, commonly stands in for NO production.

For experiment [2], the system named is iNOS. In words: iNOS protein expression (western blot) in LPS-treated BV2 cells. It counts as cell-based, mouse. The note with it: 5 µM, LPS (100 ng/ml) 24 hours, FIG. 11b. The method, then:
BV2 cells were aliquoted at a density of 1x10^6 cells/well into 60 mm dishes and stabilized for 24 hours. Thereafter, the cells were treated with 5 µM of S-equal, SPA1413, or SPA1426 for 30 minutes and then with LPS (100 ng/ml) for 24 hours at 37° C. After being cultured to reach 100% confluence, the cells were washed with PBS and lysed with a lysis buffer (PRO-PREP™ Protein Extraction Solution, Intron Biotechnology, Seongnam, Korea). With bovine serum albumin (BSA) serving as a standard, the protein contents of the lysate supernatants were measured by Bio-Rad Protein Assay (Bio-Rad, California, USA) to determine the total protein content in each sample. Afterwards, each of the samples was loaded in a protein amount of 30 µg on a 10-12% SDS-PAGE gel and run for electrophoresis. The electrophorized proteins were transferred to a PVDF membrane which was then blocked with 5% skim milk and incubated with antibodies to COX-2 or iNOS (Cell Signaling Technologies, Massachusetts, USA). Detection was conducted with a ChemiDoc XRS+ imaging system (Bio-Rad, CA, USA).
On the technique in general: In western blotting, separated proteins are transferred to a membrane and probed.

In experiment [3] the test system is LPS-treated primary microglia. As to the kind of experiment: Cell viability of LPS-treated primary microglia. It counts as cell-based, ICR mice. The conditions noted are these: FIG. 9b.
Experiment [4] has as its system TNF-a. In words: TNF-a production (ELISA) in LPS-treated BV2 cells. It counts as cell-based, mouse. The conditions noted are these: 5 µM, LPS (100 ng/ml) 24 hours, FIG. 10b. The protocol:
BV2 cells were seeded at a density of 4x10^5 cells/well into 96-well plates and stabilized for 24 hours. Thereafter, the cells were treated with 5 µM of daidzein, o-desmethylangolensin, S-equal, SPA1413, or SPA1426 for 30 minutes and then with LPS (100 ng/ml) for 24 hours at 37° C. The culture medium was collected and quantitatively measured for IL-6 and TNF-a released to the BV2 culture supernatant, using the enzyme immunoassay method […] Enzyme-Linked Immuno Assay (ELISA) kit (R&D systems, Minneapolis, MN, USA). The IL-6 and TNF-a releases from the groups treated with the samples were evaluated relative to that from the LPS-treated group, which was set to be 100%, and the results are depicted in FIGS. 10a and 10b.
(In general: An ELISA detects its analyte on a solid surface through an enzyme-linked reagent.)

Experiment [5] concerns nitric oxide production in LPS-treated BV2 cells. In words: Nitric oxide production (Griess) in LPS-treated BV2 cells. It counts as cell-based, mouse. The note with it: for NO production: LPS-treated BV2 cells, FIG. 4 (lower), 8a; for IC50: Mus musculus, read-out: IC50 (NO production). The protocol: as §1
The culture media were collected and measured for NO production using a Griess reagent solution (1% sulfanilamide and 0.1% N-1-naphthyl ethylenediamine dihydrochloride in 5% phosphoric acid). Briefly, a total of 50 µL of the supernatant was transferred to new 96-well plates and mixed with the same volume of the Griess reagent solution, followed by measuring OD at 570 nm. In addition, the cell viability was assayed in the same manner as in Experimental Example 2.

Experiment [6] concerns N2a cells. As to the kind of experiment: Neurite outgrowth in N2a cells (Incucyte). The class given is cell-based, mouse. The conditions noted are these: 5 µM, FIGS. 14a and 14b. The method, then: N2a cells were aliquoted at a density of 1x10^4 cells/well into 24-well plates, treated with daidzein, o-desmethylangolensin, S-equal, SPA1413 and SPA1426 at 5 µM, and evaluated for neurite outgrowth by the real-time cell monitoring system InCucyte. The cells were photographed every 2 hours, and the neurites were counted through Incucyte software.

Experiment [7] deals with LPS-treated BV2 cells. As to the kind of experiment: Cell viability of LPS-treated BV2 cells. The class given is cell-based, mouse. The note with it: FIG. 8b. The protocol: Mouse-derived microglia (BV2 cells) purchased from the Korean Cell Line Bank were seeded at a density of 4x10^5 cells/well into 96-well plates, each well containing DMEM (Dulbecco’s Modified Eagle’s Media) supplemented with 10% FBS and 1% antibiotics, and stabilized by incubation for 24 hours. Thereafter, the cells were treated for 24 hours with various concentrations (0.5, 1, and 5 µM) of daidzein, o-desmethylangolensin (O-DMA), S-equal, SPA1413, and SPA1426. After removal of the medium, the cells were treated 0.5 mg/ml 3-(4,5-dimethylthiazol-2-yl)-2,5-diphenyltetrazolium bromide (MTT) solution 1 hour. The reduced formazan was dissolved in 150 µl of dimethyl sulfoxide (DMSO) and absorbance was read at 570 nm in a microspectrophotometer to determine cell viability. Cell viability of the cells treated with each sample was determined relative to that of the untreated normal control (Control), which was set to be 100%, and the results are depicted in FIGS. 3 and 4 (upper).
After stabilization for 24 hours, the cells were treated with various concentrations (1 and 5 µM) of daidzein, o-desmethylangolensin, S-equal, SPA1413, and SPA1426 for 30 minutes and then with LPS (100 ng/ml) for 24 hours at 37° C. […]

Experiment [8] concerns the target MGO-AGEs (Bos taurus, UniProt P02769). As to the kind of experiment: Breaking of MGO-induced advanced glycation end products (TNBSA free amine). It counts as biochemical. The method, then: Bovine serum albumin (BSA) was stored at 37° C. for 7 days in mixture with methylglyoxal (MGO) and sodium azide) to prepare AGEs. The AGEs derived from MGO are referred to as “MGO-AGEs”. MGO-AGEs with a concentration of 1 mg/ml were treated for 24 hours with various concentrations (0.1, 0.2, and 0.4 mM) of SPA1413. As a positive control, aminoguanidine (AG), known as an AGE inhibitor, was used. MGO-AGEs were reacted with 2,4,6-trinitrobenzene sulfonic acid (TNBSA) and 4% sodium bicarbonate, followed by adding 10% sodium dodecyl sulfate and 1 N HCl to terminate the reaction. Absorbance was read at 335 nm accounting for free amines, which resulted from the breaking degradation of AGEs, in a microplate to evaluate the efficacy of degrading AGEs.

MGO-AGEs, sequence (P02769 25-607): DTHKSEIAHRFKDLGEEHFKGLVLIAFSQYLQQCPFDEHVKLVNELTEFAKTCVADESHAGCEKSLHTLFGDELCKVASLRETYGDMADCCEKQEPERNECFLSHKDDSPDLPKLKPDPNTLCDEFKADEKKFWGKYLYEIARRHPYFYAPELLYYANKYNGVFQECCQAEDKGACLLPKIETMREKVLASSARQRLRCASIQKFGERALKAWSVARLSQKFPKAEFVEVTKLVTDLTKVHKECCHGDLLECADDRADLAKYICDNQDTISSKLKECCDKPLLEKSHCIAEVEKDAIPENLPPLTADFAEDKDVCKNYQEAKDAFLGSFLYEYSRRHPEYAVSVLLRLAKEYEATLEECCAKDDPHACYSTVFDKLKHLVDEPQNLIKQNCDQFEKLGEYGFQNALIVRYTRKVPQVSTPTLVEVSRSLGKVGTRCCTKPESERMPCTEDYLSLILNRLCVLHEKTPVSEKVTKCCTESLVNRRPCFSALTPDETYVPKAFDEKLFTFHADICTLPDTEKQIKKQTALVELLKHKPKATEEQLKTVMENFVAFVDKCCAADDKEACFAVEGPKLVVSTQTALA

By IC50 is commonly meant the point on the concentration scale where inhibition reaches its midpoint. For the compound `Oc1ccc(C2=Cc3ccc(O)cc3OC2)cc1` [SPA1413, 3-(4-Hydroxyphenyl)-2H-chromen-7-ol], the NO production result in experiment [1] and in experiment [5] was “decreased NO production in dose-dependent manners” in each case. Further, in experiment [2], the “expression level of iNOS” value is recorded as “significantly decreased”. Further, the “cell viability compared to the group treated with LPS” value in experiment [3] and in experiment [7] was “increased” throughout. The TNF-a production entry in experiment [4] was “significantly decreased”. Further, in experiment [5] (BV-2, 24 h), the IC50 was determined as 5.2 µM. The neurite outgrowth result in experiment [6] is “significantly increased”. Further, the “free amines from breaking of MGO-AGEs, compared to the negative control (MGO-AGEs)” value in experiment [8] (0.1, 0.2 and 0.4 mM, 24 hours, MGO-AGEs 1 mg/ml, FIG. 18) was “increased levels of free amines”.
Turning to `CCCC(=O)Oc1ccc(C2=Cc3ccc(OC(=O)CCC)cc3OC2)cc1` [SPA1426, 4-(7-(butyryloxy)-2H-chromen-3-yl)phenyl butyrate], the NO production entry in experiment [1] and in experiment [5] was “decreased NO production in dose-dependent manners” in each case. Also, in experiment [2], the “expression level of iNOS” value was “significantly decreased”. Also, the “cell viability compared to the group treated with LPS” value in experiment [3] and in experiment [7] was “increased” each time. For the same compound, the TNF-a production result in experiment [4] was “significantly decreased”. Also, the 50% inhibitory concentration (IC50) in experiment [5] (BV-2, LPS (100 ng/ml) 24 hours, Griess reagent, cell type not stated in Table 1) turned out to be 3.67 µM. The neurite outgrowth result in experiment [6] was “significantly increased”. Besides, in experiment [8] (FIG. 19), the “free amines from breaking of MGO-AGEs, compared to SPA1413” value is given as “higher levels of free amines”.
